By logD is commonly meant lipophilicity at a set pH, counting ionised and neutral species. A low value points to a more hydrophilic compound. As a reminder, the EC50 is the concentration at which the effect is half-maximal. Broadly, the inhibition is the change of the read-out against control, counted positive when it falls.

For one data set, the system named is V1bR (hV1BR). More on the design: method as in PMID 30199637. Particulars: cited from earlier work.
Data set [1] can be described thus: lipophilicity LogD7.4 (octanol/PBS). In kind it is physicochemical. Particulars: experimental, octanol/PBS pH 7.4. As to the method:
Solubility of LIT-001 was determined from solution of about 1 mg of compound in 500 μl of PBS at pH 7.4. (Figs. 1, S1) The solution was stirred at room temperature for 24 h and centrifuged at 15.000 × g for 5 min. The supernatant was diluted with a mixture of acetonitrile and water and analyzed by HPLC with a diode detector (Gilson; Kinetex 2.6 μm C18 100 A 50 × 4.6 mm column). […] The lipophilicity (LogD7.4) of LIT-001 was measured using […] of a stock solution diluted with different concentrations of octanol and PBS to cover a LogP range from −2 to + 4.5 in a final volume of 1 ml. After stirring for 1 h at room temperature (≈ 20 °C), the samples were centrifuged and the different phases were analyzed by HPLC (Gilson; diode detector, Kinetex 2.6 μ C18 100 A 50 × 4.6 mm column).

Another data set relates to mOTR. Further details: method as in PMID 30199637. Particulars: mouse receptor, cited from earlier work.
Another data set deals with hOTR. Further details: method as in PMID 30199637. Particulars: human receptor, cited from earlier work.
The target of the next data set is hERG (Homo sapiens, UniProt Q12809). Nature of the data set: hERG inhibition, patch clamp method. Type of data set: cell-based. On the technique in general: hERG is a cardiac potassium channel; its block is linked to QT prolongation.
The subject of another data set is 24 off-target GPCRs. The experiment in a line: Eurofins SafetyScreen functional panel, GPCR agonist and antagonist profile. In kind it is cell-based. Particulars: 5 μM, 24 GPCRs. The procedure: In vitro profiling of LIT-001 was performed by Eurofins as described in the Eurofins SafetyScreen-Functional panel, 2018[31]. The hepatotoxicity of LIT-001 was studied with cryo-preserved mouse hepatocytes. After unfreezing (optiTHAW and optiINCUBATE media, Xenotech) and cell viability control, cells (2 × 10^6 cells/ml) were dispatched in 96 well microtiterplates. LIT-001 was added to reach a concentration 1 μM in the presence of 1 × 10^6 cells/mL in a volume of 100 μl/well. The incubation was stopped at 4, 20, 40, 80 and 120 min in adding 100 μl of acetonitrile at 0 °C. A positive control was treated in the same conditions. All samples were analyzed by UHPLC coupled to a mass spectrometer (Shimadzu LC-MS 8030).

In data set [2] the test system is CFA-induced thermal heat hyperalgesia. The experiment in a line: thermal heat sensitivity, Plantar test (Hargreaves), CFA model. Type of data set: in vivo. Particulars: rat. As to the method:
LIT-001 was prepared as described in Frantz et al.[20]. For in vivo biological assays, it was dissolved in carboxymethyl cellulose (CMC, 1%) - NaCl (0.9%) and administered at the dose of 10 mg/kg. LIT-001 or vehicle were injected intraperitoneally (i.p.), in a volume of 10 ml/kg[20], 24 h after the induction of the CFA-induced painful inflammatory sensitization. To confirm the implication of the OTR we injected (i.p.) also L-368,899 (Sigma, St. Louis, MO) (1 mg/kg), an OTR antagonist, in combination with LIT-001 in another group of rats[11].
(§1) Male Wistar rats (300 g; JANVIER LABS, Le Genest St. Isle, France) were used for this study. They were housed by groups of 3 or 4 under standard conditions (room temperature, 22 °C; 12/12 h light/dark cycle) with ad libitum access to food and water and behavioral enrichment. All animals were manipulated and habituated to the tests and to the room for at least 2 weeks. All behavioral tests were done during the light period (i.e., between 7:00 and 19:00). All the procedures were performed in accordance with European committee council Direction, authorization from French Department of Agriculture and from the regional ethic committee.
To test the animal heat sensitivity, we used the Plantar test with Hargreaves method (Ugo Basile, Comerio, Italy) to compare the response of each hindpaw[33] when we tested healthy animals (unilateral intraplantar NaCl injection) and animals having received unilateral intraplantar CFA (Freund’s Complete Adjuvant) injection. The habituated rat is placed in a small box and we wait until the animal is calmed then we exposed the hindpaw to a radiant heat, the latency time of paw withdrawal was measured.
(§2) In order to induce a peripheral inflammation, 100 μl of complete Freund adjuvant (CFA; Sigma, St. Louis, MO), was injected in the right hindpaw of the rat. All CFA injections were performed under light isoflurane anesthesia (3%).

Data set [3] is described as follows: stability in PBS solution over 24 h. Particulars: PBS pH 7.4, room temperature, after 24 h. In kind it is physicochemical.
The subject of data set [4] is CFA-induced mechanical hyperalgesia. Nature of the data set: mechanical sensitivity, calibrated forceps, CFA model. Particulars: rat. In kind it is in vivo. The procedure: LIT-001 was prepared as described in Frantz et al.[20]. […] LIT-001 or vehicle were injected intraperitoneally (i.p.), in a volume of 10 ml/kg[20], 24 h after the induction of the CFA-induced painful inflammatory sensitization. To confirm the implication of the OTR we injected (i.p.) also L-368,899 (Sigma, St. Louis, MO) (1 mg/kg), an OTR antagonist, in combination with LIT-001 in another group of rats[11].
as §1
In all experimentations, to test the animal mechanical sensitivity, we used a calibrated forceps (Bioseb, Chaville, France) previously developed in our laboratory (Figs. 2, 3 and S2, S3)[32]. Briefly, the habituated rat is loosely restrained with a towel masking the eyes in order to limit stress by environmental stimulations. The tips of the forceps are placed at each side of the paw and a graduate force is applied. The pressure producing a withdrawal of the paw, or in some rare cases a vocalization of the animal, corresponded to the nociceptive threshold value. This manipulation was performed three times for each hindpaw and the values were […].
as §2

The mark [5] stands for this setting: i.p. LIT-001 10 mg/kg at D1 after CFA.
Setting [6] is: i.p. LIT-001 10 mg/kg at D1 after CFA, 3 h post i.p.
Setting [7] is: i.p., D1 after CFA, measured 1 hour after injection.

Sequence of hERG (Q12809 whole entry): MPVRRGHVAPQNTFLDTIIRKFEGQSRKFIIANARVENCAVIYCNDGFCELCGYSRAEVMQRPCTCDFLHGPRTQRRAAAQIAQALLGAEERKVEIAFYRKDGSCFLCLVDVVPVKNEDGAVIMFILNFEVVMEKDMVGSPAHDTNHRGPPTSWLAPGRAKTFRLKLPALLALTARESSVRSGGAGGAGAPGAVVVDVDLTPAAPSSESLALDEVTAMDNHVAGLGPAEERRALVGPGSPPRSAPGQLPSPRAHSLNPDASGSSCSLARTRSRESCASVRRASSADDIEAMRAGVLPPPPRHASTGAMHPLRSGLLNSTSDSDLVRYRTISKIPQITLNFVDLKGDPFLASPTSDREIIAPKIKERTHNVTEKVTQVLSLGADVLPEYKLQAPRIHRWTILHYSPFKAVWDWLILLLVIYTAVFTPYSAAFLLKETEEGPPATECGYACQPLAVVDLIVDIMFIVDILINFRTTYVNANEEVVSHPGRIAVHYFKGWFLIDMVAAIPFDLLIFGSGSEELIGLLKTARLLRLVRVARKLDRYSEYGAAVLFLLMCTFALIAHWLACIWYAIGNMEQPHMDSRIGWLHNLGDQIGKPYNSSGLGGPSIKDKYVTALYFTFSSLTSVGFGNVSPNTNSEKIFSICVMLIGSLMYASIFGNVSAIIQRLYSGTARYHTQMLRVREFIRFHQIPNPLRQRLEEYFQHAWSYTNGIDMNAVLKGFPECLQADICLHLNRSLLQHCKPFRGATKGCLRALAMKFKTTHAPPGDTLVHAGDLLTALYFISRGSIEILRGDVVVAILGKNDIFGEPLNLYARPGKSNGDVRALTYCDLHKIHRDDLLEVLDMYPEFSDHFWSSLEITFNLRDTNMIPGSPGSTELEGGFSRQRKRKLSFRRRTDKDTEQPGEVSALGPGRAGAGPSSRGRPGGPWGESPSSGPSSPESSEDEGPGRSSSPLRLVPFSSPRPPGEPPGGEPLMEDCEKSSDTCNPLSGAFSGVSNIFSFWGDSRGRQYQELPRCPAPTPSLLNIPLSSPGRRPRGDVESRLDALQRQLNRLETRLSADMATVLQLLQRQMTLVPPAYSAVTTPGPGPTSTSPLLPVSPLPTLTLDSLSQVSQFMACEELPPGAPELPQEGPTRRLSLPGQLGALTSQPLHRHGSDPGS

On to `Cc1cc(C(=O)N2Cc3cnn(C)c3Nc3ccccc32)ccc1CNC(=O)N1CCC[C@H]1C(=S)N(C)C` [LIT-001], for which the “EC50 (hV1BR)” value in the data set on V1bR (hV1BR) (agonist mode) is listed as “non significant”. Besides, the “agonist or antagonist effect on V1bR” value with V1bR (hV1BR) is on record as “devoid of agonist or antagonist effect”. Moreover, the logD in data set [1] worked out at 2 ± 0.3. In addition, the EC50 in the data set with mOTR (agonist) was 18 nM. Further, the “Emax (mOTR)” value in the data set with mOTR (efficacy) was 95%. Further, in the data set on hOTR (agonist), the EC50 is 25 nM. In addition, the “Emax (hOTR)” value in the data set on hOTR (efficacy) was 96%. 1 µM produced 9.5% inhibition against hERG (1 μM). This compound also showed an inhibition at 10 µM on hERG (10 μM) of 10.6%. In addition, in the data set on 24 off-target GPCRs, the “agonist or antagonist activity at GPCRs” value is “No significant agonist or antagonist”. In addition, in [2] (10 mg/kg i.p.), the “thermal heat latency, NaCl-injected hindpaw (control animals)” value is listed as 8.14 ± 0.48 s and the “thermal heat latency, hindpaw contralateral to CFA (cCFA)” value is 11 ± 0.53 s. Also, the “relative-to-baseline AUC, thermal heat latency, CFA-injected hindpaw” value in data set [2] (setting [5]) was 135 ± 9%. The “thermal heat withdrawal latency, CFA-injected hindpaw” value in data set [2] (setting [6]) was 5.83 ± 0.65 s. Also, in [2] (setting [7]), the “dose at which analgesic effect reaches a plateau, thermal heat hypersensitivity” value came to 10 mg/kg and the “dose of first analgesic action, thermal heat hypersensitivity” value is on record as 5 mg/kg. Also, in [3], the “degradation in PBS solution” value is reported as “No degradation”. In [4] (10 mg/kg i.p.), the “mechanical threshold, NaCl-injected hindpaw (control animals)” value was found to be 526 ± 20 g and the “mechanical threshold, hindpaw contralateral to CFA (cCFA)” value worked out at 531 ± 25 g. Besides, in data set [4] (0.1-15 mg/kg i.p., mechanical and thermal heat, 1 hour after injection), the “antinociceptive action on contralateral hindpaw” value was “none of the doses tested seem to exert an antinociceptive action”. Also, in data set [4] (setting [5]), the “relative-to-baseline AUC, mechanical threshold, CFA-injected hindpaw” value is on record as 152 ± 11%. Moreover, in data set [4] (setting [6]), the “mechanical threshold, CFA-injected hindpaw” value is 246 ± 22 g. Further, in data set [4] (setting [7]), the “dose at which analgesic effect reaches a plateau, mechanical hypersensitivity” value worked out at 10 mg/kg and the “dose of first analgesic action, mechanical hypersensitivity” value amounted to 5 mg/kg.

The values are drawn from article PMC7033278, “A Nonpeptide Oxytocin Receptor Agonist for a Durable Relief of Inflammatory Pain” (Scientific Reports, 2020).
